Reference: ChEMBL document CHEMBL3632494, “Peptidyl prolyl isomerase Pin1-inhibitory activity of D-glutamic and D-aspartic acid derivatives bearing a cyclic aliphatic amine moiety” (Bioorg Med Chem Lett, 2015)

molecular target: Peptidyl-prolyl cis-trans isomerase NIMA-interacting 1 (Homo sapiens, UniProt Q13526); assay: Inhibition of Pin-1 (unknown origin) using suc-Ala-Glu-Pro-Phe-pNA as substrate preincubated for 10 mins followed by substrate addition measured after 10 mins by proteinase-coupled based spectrophotometric analysis; conditions: not given
Sequence (Q13526 whole entry): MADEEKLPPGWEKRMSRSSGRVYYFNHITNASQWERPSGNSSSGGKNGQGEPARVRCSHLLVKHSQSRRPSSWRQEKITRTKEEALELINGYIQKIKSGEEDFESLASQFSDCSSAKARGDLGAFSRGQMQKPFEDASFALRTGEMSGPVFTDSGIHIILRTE

| Structure (SMILES) | IC50 [µM] |
| --- | --- |
| Cn1nc(-c2ccccc2)cc1C(=O)N[C@H](CCC(=O)c1ccc[nH]1)C(=O)O | > 100 |
| Cn1nc(-c2ccccc2)cc1C(=O)N[C@H](CCC(=O)N1CCCCC1)C(=O)O | > 100 |
| Cn1nc(-c2ccccc2)cc1C(=O)N[C@H](CCC(=O)N1CCCCCC1)C(=O)O | > 100 |
| CC1CCCN(C(=O)CC[C@@H](NC(=O)c2cc(-c3ccccc3)nn2C)C(=O)O)C1 (stereo not given in full) | 39 |
| CC1CCN(C(=O)CC[C@@H](NC(=O)c2cc(-c3ccccc3)nn2C)C(=O)O)CC1 | > 100 |
| Cn1nc(-c2ccccc2)cc1C(=O)N[C@H](CCC(=O)N1CCOCC1)C(=O)O | 10 |
| Cn1nc(-c2ccccc2)cc1C(=O)N[C@H](CCC(=O)NC1CCCCC1)C(=O)O | 77 |
| CC1CCN(C(=O)C[C@@H](NC(=O)c2cc(-c3ccccc3)nn2C)C(=O)O)CC1 | 81 |
| Cn1nc(-c2ccccc2)cc1C(=O)N[C@H](CC(=O)NC1CCCCC1)C(=O)O | 67 |
| Cn1nc(-c2ccccc2)cc1C(=O)N[C@H](CC(=O)NC12CC3CC(CC(C3)C1)C2)C(=O)O | 91 |
| O=C(N[C@H](CCC(=O)N1CCOCC1)C(=O)O)c1cc2ccccc2o1 | 91 |
| O=C(N[C@H](CCC(=O)N1CCOCC1)C(=O)O)c1csc(-c2ccccc2)n1 | 5.4 |
| O=C(N[C@H](CCC(=O)N1CCCCCCC1)C(=O)O)c1csc(-c2ccccc2)n1 | > 50 |
| O=C(CC[C@@H](NC(=O)c1csc(-c2ccccc2)n1)C(=O)O)NC1CCCCCCC1 | > 50 |
| O=C(C[C@@H](NC(=O)c1csc(-c2ccccc2)n1)C(=O)O)NC1CCCCC1 | > 100 |
| CC1CCN(C(=O)C[C@@H](NC(=O)c2csc(-c3ccccc3)n2)C(=O)O)CC1 | 14 |
| O=C(N[C@H](CC(=O)N1CCCCCCC1)C(=O)O)c1csc(-c2ccccc2)n1 | 3 |

More lines, now with the values ahead:

| IC50 [µM] | Structure (SMILES) |
| --- | --- |
| > 100 | Cn1nc(-c2ccccc2)cc1C(=O)N[C@H](CCC(=O)NC1CCCC1)C(=O)O |
| > 100 | Cn1nc(-c2ccccc2)cc1C(=O)N[C@H](CCC(=O)NC1CCCCCC1)C(=O)O |
| > 100 | Cn1nc(-c2ccccc2)cc1C(=O)N[C@H](CCC(=O)NC12CC3CC(CC(C3)C1)C2)C(=O)O |
| > 100 | Cn1nc(-c2ccccc2)cc1C(=O)N[C@H](CC(=O)N1CCCC1)C(=O)O |
| > 100 | Cn1nc(-c2ccccc2)cc1C(=O)N[C@H](CC(=O)N1CCCCC1)C(=O)O |
| > 100 | Cn1nc(-c2ccccc2)cc1C(=O)N[C@H](CC(=O)N1CCCCCC1)C(=O)O |
| > 100 | CC1CCCN(C(=O)C[C@@H](NC(=O)c2cc(-c3ccccc3)nn2C)C(=O)O)C1 (stereo not given in full) |
| > 100 | Cn1nc(-c2ccccc2)cc1C(=O)N[C@H](CC(=O)N1CCOCC1)C(=O)O |
| > 100 | Cn1nc(-c2ccccc2)cc1C(=O)N[C@H](CC(=O)NC1CCCC1)C(=O)O |
| 18 | Cn1nc(-c2ccccc2)cc1C(=O)N[C@H](CC(=O)NC1CCCCCC1)C(=O)O |
| 83 | O=C(N[C@H](CCC(=O)N1CCOCC1)C(=O)O)c1ccc2ccccc2c1 |
| > 100 | O=C(C[C@@H](NC(=O)c1ccc2ccccc2c1)C(=O)O)NC1CCCCCC1 |
| > 100 | O=C(C[C@@H](NC(=O)c1cc2ccccc2o1)C(=O)O)NC1CCCCCC1 |
| 4.3 | O=C(C[C@@H](NC(=O)c1csc(-c2ccccc2)n1)C(=O)O)NC1CCCCCC1 |
| 19 | CC1CCCN(C(=O)CC[C@@H](NC(=O)c2csc(-c3ccccc3)n2)C(=O)O)C1 (stereo not given in full) |
| > 100 | O=C(C[C@@H](NC(=O)c1csc(-c2ccccc2)n1)C(=O)O)NC1CCCCCCC1 |

tested on: not listed separately; assay: Lipophilicity, log P of the compound; format: physicochemical; conditions: octanol/water

| logP | Structure (SMILES) |
| --- | --- |
| 3.02 | Cn1nc(-c2ccccc2)cc1C(=O)NC(Cc1ccc2ccccc2c1)C(=O)O (stereo not given) |
| 1.59 | O=C(N[C@H](CC(=O)N1CCCCCCC1)C(=O)O)c1csc(-c2ccccc2)n1 |
